In the NIST ThermoML archive (doi:10.1016/j.jct.2012.07.024):
± gives the expanded uncertainty stated by the source.

Key:
[1] = 101.33 kPa, Liquid; for viscosity: Concentric cylinders viscometry; for mass density: Vibrating tube method
[2] = refractive index (Na D-line) (dimensionless); conditions: 101.33 kPa, Liquid, Standard Abbe refractometry

SMILES	viscosity ([1]; 288.15 K) [mPa·s]	mass density ([1]; 288.15 K) [kg/m3]	viscosity ([1]; 293.15 K) [mPa·s]	mass density ([1]; 293.15 K) [kg/m3]	viscosity ([1]; 298.15 K) [mPa·s]	mass density ([1]; 298.15 K) [kg/m3]	viscosity ([1]; 303.15 K) [mPa·s]	mass density ([1]; 303.15 K) [kg/m3]	viscosity ([1]; 308.15 K) [mPa·s]	mass density ([1]; 308.15 K) [kg/m3]	viscosity ([1]; 313.15 K) [mPa·s]	mass density ([1]; 313.15 K) [kg/m3]	viscosity ([1]; 318.15 K) [mPa·s]	mass density ([1]; 318.15 K) [kg/m3]	viscosity ([1]; 323.15 K) [mPa·s]	mass density ([1]; 323.15 K) [kg/m3]	viscosity ([1]; 328.15 K) [mPa·s]	mass density ([1]; 328.15 K) [kg/m3]	viscosity ([1]; 333.15 K) [mPa·s]	mass density ([1]; 333.15 K) [kg/m3]	other results
OCCCO [propan-1,3-diol]	68.06 ± 1.5	1055.96 ± 0.95	52.75 ± 1.2	1052.87 ± 0.95	41.97 ± 0.95	1049.76 ± 0.94	33.56 ± 0.76	1046.64 ± 0.93	27.15 ± 0.61	1043.5 ± 0.93	22.22 ± 0.5	1040.35 ± 0.92	18.35 ± 0.41	1037.18 ± 0.91	15.29 ± 0.34	1033.98 ± 0.91	12.84 ± 0.29	1030.77 ± 0.9	10.96 ± 0.25	1027.53 ± 0.89	refractive index ([2]; 288.15 K): 1.44073 ± 0.00051; refractive index ([2]; 293.15 K): 1.43932 ± 0.00051; refractive index ([2]; 298.15 K): 1.43792 ± 0.00051; refractive index ([2]; 303.15 K): 1.43654 ± 0.00051; refractive index ([2]; 308.15 K): 1.43513 ± 0.00051; refractive index ([2]; 313.15 K): 1.43375 ± 0.00051; refractive index ([2]; 318.15 K): 1.43232 ± 0.00051; refractive index ([2]; 323.15 K): 1.43087 ± 0.00051; refractive index ([2]; 328.15 K): 1.42945 ± 0.00051; refractive index ([2]; 333.15 K): 1.42803 ± 0.00051
CC(O)CO (stereo not given) [1,2-propanediol]	82.86 ± 1.8	1039.87 ± 0.14	59.84 ± 1.2	1036.25 ± 0.14	44.19 ± 0.9	1032.59 ± 0.13	33.29 ± 0.68	1028.88 ± 0.13	25.54 ± 0.52	1025.14 ± 0.13	19.92 ± 0.41	1021.35 ± 0.13	15.79 ± 0.32	1017.52 ± 0.13	12.76 ± 0.26	1013.66 ± 0.13	10.35 ± 0.21	1009.75 ± 0.13	8.586 ± 0.18	1005.79 ± 0.13	refractive index ([2]; 288.15 K): 1.43425 ± 0.00033; refractive index ([2]; 293.15 K): 1.4326 ± 0.00033; refractive index ([2]; 298.15 K): 1.43093 ± 0.00033; refractive index ([2]; 303.15 K): 1.42927 ± 0.00033; refractive index ([2]; 308.15 K): 1.4276 ± 0.00033; refractive index ([2]; 313.15 K): 1.4259 ± 0.00033; refractive index ([2]; 318.15 K): 1.42422 ± 0.00033; refractive index ([2]; 323.15 K): 1.42252 ± 0.00033; refractive index ([2]; 328.15 K): 1.42078 ± 0.00033; refractive index ([2]; 333.15 K): 1.41909 ± 0.00033
